From US20240122930A1, “INTEGRIN INHIBITORS AND USES THEREOF IN COMBINATION WITH OTHER AGENTS” (Pliant Therapeutics, Inc., priority 2022, published 2024)

Legend:
[1] = system: participants with idiopathic pulmonary fibrosis (IPF); experiment: Phase 2a clinical trial: quantitative ground glass (QGG) score on HRCT; type: in vivo, human; conditions: for QGG score, Change to Week 12, LS Mean (SE): placebo 0.0 (0.63); for QGG score, Change to Week 24, LS Mean (SE): placebo −0.7 (1.66)
bleomycin-treated mice = experiment: Murine bleomycin model (pSMAD3, collagen deposition); type: in vivo, mice (C57BL/6)
Procedure: Mice (C57BL/6) were divided into healthy (n=15), vehicle-treated (n=15), and test article-treated (n=15 per dose) groups. Mice in the vehicle and test article-treated groups were administered 3 U/kg of bleomycin (Teva Pharmaceuticals; North Wales, PA) via oropharyngeal aspiration while under anesthesia on day 0. Healthy animals were administered water in a similar fashion. Starting on day 7, mice in the control group were administered PBS vehicle, 130 μL, by oral gavage, BID for 14 days. Also starting on day 7, mice in the test group were administered Compound 5 in PBS by oral gavage, BID for 14 days, at relative dosages of 1×, 2.5× and 5×. […] From day 14 through day 21, 9 of the 15 mice were administered ^2H2O for labeling. All mice were sacrificed on day 21 and tissues were collected. Samples were prepared for analysis either directly from lung tissue, or by bronchoalveolar lavage, which washes out the bronchiolar and alveolar space with saline to produce a bronchoalveolar lavage fluid (BALF) in which 80-90% of cells are alveolar macrophages.
FIGS. 4F, 4G, and 4H show high resolution second harmonic generation images of fibrillar collagen (collagen type I and III) taken from formalin-fixed paraffin embedded lung tissue sections from a healthy mouse lung (4F), a vehicle-treated mouse lung (4G) and a test-article treated mouse lung (4H; 500 mg/kg BID). Color scale is indicative of collagen fiber density (red=most dense; blue=least dense).
FIG. 41 is a graph showing the percent total collagen area in the second harmonic generation mouse lung images. Large structural areas of collagen found similarly in healthy and fibrotic tissues (dense collagen fibers surrounding airways were excluded from this analysis to focus on interstitial fibrotic collagen). […] The 1×, 2.5×, and 5× dosages were at the same absolute values in mg/kg as in Example B7.
The data for FIGS. 4J and 4K, was obtained 14 days after bleomycin challenge in mice were treated with Compound 5 at 2.5× dose (PO, BID for 1.5 days).

integrin beta-6 (ITGB6) = experiment: Phase 2a clinical trial: plasma integrin beta-6; type: in vivo, human; conditions: IPF participants; greatest effect at 320 mg
Text: Med. 2022 June; 10(6):593-602, which is incorporated herein by reference in its entirety. […] Res. 2019 Jul. 12; 20(1):148, which is incorporated herein by reference in its entirety. ** denotes that p<0.01 vs placebo. LS refers to Least Squares. SE refers to Standard Error. Integrin beta-6 data was reported in relative quantitation log2 scale.

[2] = system: Type I Collagen gene Col1a1 expression; experiment: Precision cut lung slices, acute bleomycin exposure, Col1a1 expression; type: cell-based, mice (C57BL/6); conditions: acute bleomycin PCLS, 3 days culture; integrin inhibitors at IC50 for TGF-beta activation, pan-αV and ALK5 inhibitors at 10× IC50
Procedure: Mice (C57BL/6) were administered 3 U/kg of bleomycin (Teva Pharmaceuticals; North Wales, PA) on day 0 via oropharyngeal aspiration while under anesthesia. On day 14, precision cut lung slices were obtained. Following euthanization, 2% low gelling temp agarose was injected into the mouse lungs via the trachea. […] The lobes were then subjected to precision slicing to obtain samples for culture using a microtome (Compresstome VF-300-OZ, Precisionary; Greenville, NC). Individual slices were distributed in a multiwell culture plate and cultured for 3 days under control (DMSO) and test compound conditions. The viability of the slices over the course of culturing was confirmed by WST-1 assay of mitochondrial activity.

[3] = bleomycin mice, 1×, […], 5×, vs control mice

With `COCCN(CCCCc1ccc2c(n1)NCCC2)CC[C@H](Nc1ncnc2ccccc12)C(=O)O` [Compound 5, (S)-4-((2-methoxyethyl) (4-(5,6,7,8-tetrahydro-1,8-naphthyridin-2-yl)butyl)amino)-2-(quinazolin-4-ylamino) butanoic acid] the “QGG score, Change to Week 12, LS Mean Diff (SE) vs. Placebo” value ([1]; 40 mg (n 15)) was 1.3 (1.04), the “QGG score, Change to Week 12, LS Mean (SE)” value ([1]; 40 mg (n 15)) was 1.3 (0.82) and the “QGG score, Change to Week 12, LS Mean Diff (SE) vs. Placebo” value ([1]; 80 mg (n 18)) was −1.2 (0.98). The “QGG score, Change to Week 12, LS Mean (SE)” value ([1]; 80 mg (n 18)) was −1.2 (0.74), the “QGG score, Change to Week 12, LS Mean Diff (SE) vs. Placebo” value ([1]; 160 mg (n 14)) was −0.1 (1.05) and the “QGG score, Change to Week 12, LS Mean (SE)” value ([1]; 160 mg (n 14)) was 0.0 (0.84). The “QGG score, Change to Week 24, LS Mean Diff (SE) vs. Placebo” value ([1]; 320 mg (n 14)) was −1.2 (1.53), the “QGG score, Change to Week 24, LS Mean (SE)” value ([1]; 320 mg (n 14)) was −1.8 (1.31) and the “QGG score, Change to Week 12, LS Mean Diff (SE) vs. Placebo” value ([1]; 320 mg (n 16)) was −0.2 (1.01). For the same compound, the “QGG score, Change to Week 12, LS Mean (SE)” value ([1]; 320 mg (n 16)) was −0.2 (0.79), the “QGG score, Change to Week 24, LS Mean Diff (SE) vs. Placebo” value ([1]; All Compound 5 (n 14)) was −1.2 (1.53) and the “QGG score, Change to Week 24, LS Mean (SE)” value ([1]; All Compound 5 (n 14)) was −1.8 (1.31). The “QGG score, Change to Week 12, LS Mean Diff (SE) vs. Placebo” value ([1]; All Compound 5 (n 63)) was −0.1 (0.76), the “QGG score, Change to Week 12, LS Mean (SE)” value ([1]; All Compound 5 (n 63)) was −0.1 (0.40) and the “Ground glass scores over a 12-24 week period after treatment” value ([1]; instant study) was “decreased or remained stable”. For the same compound, the “relationship between pSMAD3 levels in lung and BALF cells vs. plasma drug exposure” value (bleomycin-treated mice; 14 days after bleomycin challenge, […] dose PO BID for 1.5 days) was “close inverse relationship”, the “accumulated new collagen (percentage of lung collagen containing 2H-labeled hydroxyproline)” value (bleomycin-treated mice; bleomycin mice, 1× and 5×, vs control mice) was “dose-dependent reduction” and the “percent total collagen area in second harmonic generation images” value (bleomycin-treated mice; [3]) was “substantial, statistically significant dose-dependent reduction”. The “total pulmonary collagen (μg of hydroxyproline)” value (bleomycin-treated mice; [3]) was “reduction in total pulmonary collagen”, the “SMAD3 phosphorylation in lung tissue” value (bleomycin-treated mice; bleomycin mice, oral gavage BID 14 days, 1×, […], 5× dosages, vs vehicle) was “substantial, statistically significant dose-dependent reductions” and the “Circulating (plasma) integrin beta-6 levels relative to placebo” value (integrin beta-6 (ITGB6)) was “reduced”. The “Type I Collagen gene Col1a1 expression, normalized to DMSO control slices” value [2] was “decreased Type I Collagen gene Col1a1 expression substantially”.
